Source: US20250228881A1, “COMPOSITION FOR PREVENTION OR TREATMENT OF MULTIPLE MYELOMA COMPRISING NOVEL T[…] AS ACTIVE INGREDIENT” (KBLUEBIO INC, priority 2021, published 2025)
Entries after “also recorded” stand apart in the source; their conditions may differ.

Key:
[1] = system: normal hematopoietic stem cells; experiment: Progenitor colony formation of normal PBSC fraction on methylcellulose (toxicity to hematopoietic stem cells); type: cell-based; conditions: normal donor PBSC, 2 weeks, KBB-N2 up to 60 μM
Procedure: G-CSF was subcutaneously injected into a normal donor to mobilize hematopoietic stem cells, and a peripheral blood stem cell (PBSC) fraction was extracted from the donor's peripheral blood by leukapheresis. The obtained normal PBSC fraction and KBB-N2 were cultured on methylcellulose for 2 weeks, and the cytotoxicity of KBB-N2 to hematopoietic stem cells was evaluated by counting the number of the formed erythroid progenitor colonies and leukocyte/megakaryocytic progenitor colonies.

[2] = system: human-derived multiple myeloma cell lines ARH77, U266, and RPMI 8226; experiment: Multiple myeloma mouse xenograft model, tail vein administration; type: in vivo; conditions: xenograft mice
Procedure: Using xenograft models obtained by injecting the same human-derived multiple myeloma cell lines ARH77, U266, and RPMI 8226 into mice, each of KBB-N2 was injected into the vein tail at 7 mg/Kg/day, and as a positive control, lenalidomide, which is currently widely used as a therapeutic agent for multiple myeloma in clinical practice, was injected into the vein tail at 1 mg/Kg/day.

[3] = system: RPMI 8226 cells; experiment: Quantitative RT-PCR array of 84 apoptosis-related genes after KBB-N2 treatment; type: cell-based, Human; conditions: 50 μM KBB-N2, 48 hours
Procedure: To investigate the cell death mechanism induced by treatment with KBB-N2, changes in the expression of apoptosis-related genes in a multiple myeloma cell line were measured. 50 μM of KBB-N2 was added to multiple myeloma cells (million cells/mL), followed by 48 hours of culture. Then, total RNA was extracted and the expression levels of 84 apoptosis-related genes were analyzed using quantitative RT-PCR array (Cat #PAHS-012Z; Qiagen Seoul, Seoul, Korea). After treating the cells with 50 μM of KBB-N2, the cells were cultured for 48 hours, and total RNA was isolated from the RPMI 8226 cells using the RNAqueous total RNA isolation kit (Thermo Fisher Scientific). Contaminating genomic DNA in the extracted RNA was removed using an RNase-Free DNase set (Qiagen). Total RNA (5 ug) was reverse transcribed into cDNA in a reaction volume of 10 μL using the RT2 First Strand Kit (Qiagen). Next, 10 μL of cDNA was combined with each primer set of the human apoptosis-related RT2 Profiler PCR Array (Qiagen) according to the manufacturer's protocol. Amplification reactions were performed using the real-time polymerase chain reaction system CFX96 (Bio-Rad, Hercules, CA, USA) with automated baseline and threshold cycle detection. The relative expression of […] genes was normalized to five built-in housekeeping genes. Each group was analyzed by the web-based software GeneGlobe Data Analysis Center (Qiagen).

[4] = system: multiple myeloma cell lines; experiment: Co-treatment of multiple myeloma cell lines with KBB-N2 and lenalidomide (killing effect); type: cell-based, Human; conditions: co-treated with lenalidomide, compared with lenalidomide alone
Procedure: Multiple myeloma cells IM-9 and RPMI 8226 (3×10^6 cells/mL) treated with KBB-N2 for 48 hours were washed with 1x PBS (phosphate-buffered saline, pH 7.4) and fixed with 70% ethanol. After washing several times with 1×PBS, 5 μL of Annexin V-FITC and 5 μL of PI (propidium iodine) (Sigma-Aldrich, St. Louis, MO) were added to 500 μL of 1×PBS containing the cells (1×10^6 cells/mL) suspended therein, followed by staining in a dark room at room temperature for 30 minutes. Then, 500 μL of 1× binding buffer was added thereto, and flow cytometry was performed using FACSCalibur (Becton Dickinson, Franklin Lakes, NJ, USA), followed by analysis using the CellQuest software (Becton Dickinson) program.

## CC(C)=CCC[C@](C)(O)[C@H]1CC[C@]2(C)[C@@H]1[C@H](O)C[C@@H]1[C@@]3(C)CC[C@H](O[C@@H]4O[C@H](CO)[C@@H](O)[C@H](O)[C@H]4O)C(C)(C)[C@@H]3CC[C@]12C [KBB-N2]
[1]
  cytotoxicity to hematopoietic stem cells: number and morphology/formation of progenitor cell colonies: not toxic to normal hematopoietic stem cells; also recorded: not significantly inhibited
[2]; KBB-N2 7 mg/Kg/day tail vein vs positive control lenalidomide 1 mg/Kg/day tail vein
  therapeutic effect for multiple myeloma: therapeutic effect equal to or higher than that of traditional lenalidomide
[2]; bone marrow biopsy after treatment
  effect on multiple myeloma treatment in bone marrow biopsy after treatment: effect of KBB-N2 on multiple myeloma treatment was also found
[3]
  overexpression of apoptosis-related gene APAF1: at least 2 fold
  overexpression of apoptosis-related gene BAD: at least 2 fold
  overexpression of apoptosis-related gene BCL2: at least 3 fold
  overexpression of apoptosis-related gene BCL2L1: at least 2 fold
  overexpression of apoptosis-related gene CAS7: at least 3 fold
  overexpression of apoptosis-related gene CASP2: at least 2 fold
  overexpression of apoptosis-related gene CASP3: at least 2 fold
  overexpression of apoptosis-related gene DAPK1: at least 4 fold
  overexpression of apoptosis-related gene FADD: at least 2 fold
  overexpression of apoptosis-related gene HRK: at least 2 fold
  overexpression of apoptosis-related gene IGFIR: at least 2 fold
  overexpression of apoptosis-related gene LTBR: at least 2 fold
  overexpression of apoptosis-related gene NAIP: at least 2 fold
  overexpression of apoptosis-related gene NOD1: at least 2 fold
  overexpression of apoptosis-related gene NOL3: at least 2 fold
  overexpression of apoptosis-related gene TNF: at least 2 fold
  overexpression of apoptosis-related gene TNFRF1A: at least 2 fold
  overexpression of apoptosis-related gene TNFRSF1B: at least 2 fold
  overexpression of apoptosis-related gene TNFRSF10A: at least 2 fold
  overexpression of apoptosis-related gene TNFRSF10B: at least 2 fold
  overexpression of apoptosis-related gene TNFRSF25: at least 2 fold
  overexpression of apoptosis-related gene TP53: at least 2 fold
  overexpression of apoptosis-related gene TRADD: at least 2 fold
  overexpression of apoptosis-related gene XIAP: at least 2 fold
[4]
  killing effect on co-treatment with lenalidomide: killing effect was higher
